Measured values from patent US7960168B2, “Biologically active substance transfer sheet, cell culture kit constituted of cell culture plate and biologically active substance transfer sheet, producing method thereof and method for screening cell culture conditions utilizing the same” (Canon Kabushiki Kaisha, priority 2003, dated 2011).

How the values were obtained:
Format in all cases: cell-based
nerve cell strain PC12 = assay: PC12 culture with immobilized EGF and dissolved EGF/NGF, hematoxilin-eosin staining (Example 6); conditions: PC12, 48 hours
Method: An epidermal cell growth factor (EGF) and a nerve cell growth factor (NGF) were employed as the biologically active substances. A culture plate of polystyrene 96-well cell culture plate was prepared by a process similar to that in Example 5, providing areas (wells) where EGF was immobilized with stepwise concentrations, and control areas (wells) of no immobilization. Separately, a stretchable polyolefin sheet was coated with hydroxypropyl cellulose by using a bar coater and heated for 10 minutes at 60° C. to form a holding layer. Then EGF and NGF were provided on the sheet by using a Canon ink jet printer PIXUS950i to obtain a transfer sheet on which areas carrying EGF and NGF singly or in combination. Screening was conducted with these cell culture plate and transfer sheet.
The transfer sheet was placed on the cell culture plate sterilized in advance with a sterilizing lamp and filled with a culture liquid, then the areas carrying biological substance(s) of the sheet were brought into contact with the culture liquid in the wells by pushing the opposite surface of the sheet with a pointed article, and the contact was maintained for 15 minutes under light shaking to dissolve the biologically active substance in the culture liquid. […]

[1] = tested on: mouse skeletal muscle cell strain C2C12; assay: C2C12 culture with transfer sheet carrying b-FGF, IGF-I and BMP-2, microscope observation (Example 1); conditions: C2C12, 96 hours culture
Method: Basic fibroblast cell growth factor (b-FGF), insulin-like growth factor (IGF-I) and bone morphogenetic protein (BMP-2) were used as the biologically active substance. b-FGF was dissolved in a physiological saline solution, IGF-I in 10 mM acetic acid, and BMP-2 in 4 mM hydrochloric acid to prepare solutions each containing the biologically active substance at a concentration of 20 μg/ml and 5% glycerin. Ink cartridges were washed with 70% ethanol, to which the respective solutions prepared above were filled.
Then, on a base of a polyolefin sheet (NOVIX-II® manufactured by Asahi Techno Glass), sterilized in advance with a sterilizing lamp, the biologically active substances were discharged by using an ink jet printer (Ink jet printer F930, Canon). […]
The cells after the culture were treated with 10% formalin for 15 minutes and then with methanol for 15 minutes, and finally with a 1000-fold dilution of fluorescent dye (TOTO-3 manufactured by Molecular Probe) for 30 minutes for fluorescent staining of DNA. […] Also the cells were subjected to freeze-fracture and the creatinkinase (KP) and alkaliphosphatase (ALP) activities were measured.

[2] = tested on: mouse skeletal muscle cell strain C2C12; assay: C2C12 culture with sequential transfer sheets A and B, CK and ALP activities (Example 2); conditions: C2C12, areas containing IGF-I only
Text: As the biologically active substances, fibroblast cell growth factor-2 (FGF-2), insulin-like growth factor-I (IGF-I), bone morphogenetic protein-2 (BMP-2) and transforming growth factor-β (TGF-β) were employed.
A DMEM culture liquid containing 2% FBS was put into wells of two 96-well transparent microplates 1 and 2. […] In this manner, the sheet A was used to provide FGF-2 and IGF-I to the microplate 1, and the sheet B was used to provide BMP-2 and TGF-β to the microplate 2. Then, in each well of each microplate, cells of mouse skeletal muscle cell strain C2C12 were cultured for 48 hours in humidified air supplied with 5% CO2. 48 hours after the start of the culture, the culture liquid was removed from each cell by suction. After fresh 2% FBS/DMEM was added to each well, a transfer sheet B was applied to the microplate 1 to supply BMP-2 and TGF-β, while a transfer sheet B was applied to the microplate 2 to supply FGF-2 and IGF-I, and the cell culture was conducted for further 48 hours.

[3] = tested on: mouse skeletal muscle cell strain C2C12; assay: C2C12 culture on plate with immobilized b-FGF and IGF-I and BMP-2 transfer sheet, optical microscope (Example 5); conditions: C2C12, 96 hours
Method: The following method was employed for acting biologically active substances in combination on cells. As the biologically active substances, there were employed basic fibroblast cell growth factor (b-FGF), insulin-like growth factor (IGF-I) and bone morphogenetic protein (BMP-2).
First, bFGF and IGF-I were immobilized onto a polystyrene 96-well cell culture plate in the following manner.
On the cell culture plate coated with poly-L-lysine, a solution (1.5 mg/ml) of active dextran activated with tresyl chloride was added to bind the activated dextran to the plate. Then carbonate buffer solutions containing b-FGF and IGF-I respectively were prepared, applied to the microplate with various amounts. The microplate was left to stand for 12 hours at 4° C. to prepare a cell culture plate including areas where b-FGF and IGF-I were immobilized either singly or in combination with different concentrations, as well as control areas without immobilization.
A polystyrene sheet having projections corresponding the wells of the microplate was provided and sterilized. […]
Then the cells were treated with 10% formalin for 15 minutes and then with methanol for 15 minutes, and reacted with a fluorescent dye for 30 minutes for fluorescent staining of DNA. […] Thus the complex effects of three factors, namely immobilized bFGF, soluble IGF-I and BMP-2, to the cells were analyzed.

[4] = tested on: mouse skeletal muscle cell strain C2C12; assay: C2C12 culture with BMP-2, sustained-release IGF-I and timed FGF-2 addition, ALP staining (Example 3)
Method: On the other hand, the 20 μg/ml solution of the insulin-like growth factor (IGF-I) contained 5% glycerin and 3% styrene-acrylic resin monoethanolamine salt (average molecular weight 8,000, acid value 250) for controlled release of IGF. Ink cartridges were washed with 70% ethanol, and were filled with the respective solutions of the biologically active substances.
Each polyolefin sheet was processed in advance to have minute holes at positions corresponding to the wells of a 96 well plate to allow gas exchange. A DMEM culture liquid containing FBS by 2% was put in wells of five 96-well transparent microplates. […] Then, in each well, cells of a mouse skeletal muscle cell strain C2C12 were added. Next, a transfer sheet carrying IGF-I was superimposed on each of the microplate and pressed from the above using the above jig so that each region of the sheet came in contact with the culture liquid in each well to gradually release IGF-I into the culture liquid, and cell culture was started. The above operations were carried out in the same manner with the five microplates. After a predetermined time from the start of the culture, the transfer sheet of one of the microplates was replaced by a transfer sheet carrying FGF-2 to dissolve FGF-2 into the culture liquid. After that the transfer sheet was replaced by the previous IGF-I sheet and the culture was continued. All the cells were cultured for 114 hours in total at 37° C., in humidified air containing 5% CO2. The FGF-2 addition was conducted at the following points:
(1) immediately after the start of culture;
(2) 12 hours after the start of culture;
(3) 24 hours after the start of culture;
(4) 48 hours after the start of culture;
(5) 72 hours after the start of culture.

EGF: epidermal cell growth factor, immobilized on the plate or dissolved from the sheet
effect on proliferation and differentiation (nuclei and cell morphology), immobilized state versus dissolved state (nerve cell strain PC12): affected the PC12 cells differently

IGF-I: insulin-like growth factor used as biologically active substance
differentiation into muscle cells (microscope observation) ([1]; areas containing IGF-I): accelerated depending on the concentrations
muscle differentiation (CK relative activity) [2]: accelerated
muscle differentiation (optical microscope) ([3]; areas containing IGF-I): muscle differentiation

b-FGF: Basic fibroblast cell growth factor, a cell growth factor used as biologically active substance
cell proliferation (microscope observation) ([1]; areas containing b-FGF): accelerated depending on the concentrations
ALP staining (index for bone differentiation by BMP-2) ([4]; FGF-2 added (1) immediately after the start of culture): stained portions were scarcely observed
ALP staining (index for bone differentiation by BMP-2) ([4]; FGF-2 added (2) 12 hours after the start of culture): stained portions were scarcely observed
ALP staining (index for bone differentiation by BMP-2) ([4]; FGF-2 added (3) 24 hours after the start of culture): portions stained with ALP were confirmed
ALP staining (index for bone differentiation by BMP-2) ([4]; FGF-2 added (4) 48 hours after the start of culture): portions stained with ALP were confirmed
ALP staining (index for bone differentiation by BMP-2) ([4]; FGF-2 added (5) 72 hours after the start of culture): portions stained with ALP were confirmed
bone differentiation from muscle cells into bone cells ([4]; adding FGF-2 within 24 hours after the start of the culture): significantly suppressed
cell proliferation (optical microscope) ([3]; areas containing immobilized b-FGF): cell proliferation
